Patent US20240246992A1, “MACROCYCLIC LRRK2 KINASE INHIBITORS” (LES LABORATOIRES SERVIER, priority 2021, published 2024)

Target: human recombinant LRRK2 protein (Homo sapiens, UniProt Q5S007)
Test: LRRK2 kinase activity assay (ADP-Glo, LRRKtide peptide)
Type: biochemical
Details: human recombinant LRRK2 wt, LRRKtide peptide and ATP, 1 h at 37° C.
In short: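 Human recombinant LRRK2 reacted with LRRKtide peptide and ATP for 1 h at 37 °C in the presence of compound. ADP formed measured by ADP-Glo luminescence; IC50 fitted from 10 concentrations run in duplicate.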

human recombinant LRRK2 protein, sequence (Q5S007 whole entry): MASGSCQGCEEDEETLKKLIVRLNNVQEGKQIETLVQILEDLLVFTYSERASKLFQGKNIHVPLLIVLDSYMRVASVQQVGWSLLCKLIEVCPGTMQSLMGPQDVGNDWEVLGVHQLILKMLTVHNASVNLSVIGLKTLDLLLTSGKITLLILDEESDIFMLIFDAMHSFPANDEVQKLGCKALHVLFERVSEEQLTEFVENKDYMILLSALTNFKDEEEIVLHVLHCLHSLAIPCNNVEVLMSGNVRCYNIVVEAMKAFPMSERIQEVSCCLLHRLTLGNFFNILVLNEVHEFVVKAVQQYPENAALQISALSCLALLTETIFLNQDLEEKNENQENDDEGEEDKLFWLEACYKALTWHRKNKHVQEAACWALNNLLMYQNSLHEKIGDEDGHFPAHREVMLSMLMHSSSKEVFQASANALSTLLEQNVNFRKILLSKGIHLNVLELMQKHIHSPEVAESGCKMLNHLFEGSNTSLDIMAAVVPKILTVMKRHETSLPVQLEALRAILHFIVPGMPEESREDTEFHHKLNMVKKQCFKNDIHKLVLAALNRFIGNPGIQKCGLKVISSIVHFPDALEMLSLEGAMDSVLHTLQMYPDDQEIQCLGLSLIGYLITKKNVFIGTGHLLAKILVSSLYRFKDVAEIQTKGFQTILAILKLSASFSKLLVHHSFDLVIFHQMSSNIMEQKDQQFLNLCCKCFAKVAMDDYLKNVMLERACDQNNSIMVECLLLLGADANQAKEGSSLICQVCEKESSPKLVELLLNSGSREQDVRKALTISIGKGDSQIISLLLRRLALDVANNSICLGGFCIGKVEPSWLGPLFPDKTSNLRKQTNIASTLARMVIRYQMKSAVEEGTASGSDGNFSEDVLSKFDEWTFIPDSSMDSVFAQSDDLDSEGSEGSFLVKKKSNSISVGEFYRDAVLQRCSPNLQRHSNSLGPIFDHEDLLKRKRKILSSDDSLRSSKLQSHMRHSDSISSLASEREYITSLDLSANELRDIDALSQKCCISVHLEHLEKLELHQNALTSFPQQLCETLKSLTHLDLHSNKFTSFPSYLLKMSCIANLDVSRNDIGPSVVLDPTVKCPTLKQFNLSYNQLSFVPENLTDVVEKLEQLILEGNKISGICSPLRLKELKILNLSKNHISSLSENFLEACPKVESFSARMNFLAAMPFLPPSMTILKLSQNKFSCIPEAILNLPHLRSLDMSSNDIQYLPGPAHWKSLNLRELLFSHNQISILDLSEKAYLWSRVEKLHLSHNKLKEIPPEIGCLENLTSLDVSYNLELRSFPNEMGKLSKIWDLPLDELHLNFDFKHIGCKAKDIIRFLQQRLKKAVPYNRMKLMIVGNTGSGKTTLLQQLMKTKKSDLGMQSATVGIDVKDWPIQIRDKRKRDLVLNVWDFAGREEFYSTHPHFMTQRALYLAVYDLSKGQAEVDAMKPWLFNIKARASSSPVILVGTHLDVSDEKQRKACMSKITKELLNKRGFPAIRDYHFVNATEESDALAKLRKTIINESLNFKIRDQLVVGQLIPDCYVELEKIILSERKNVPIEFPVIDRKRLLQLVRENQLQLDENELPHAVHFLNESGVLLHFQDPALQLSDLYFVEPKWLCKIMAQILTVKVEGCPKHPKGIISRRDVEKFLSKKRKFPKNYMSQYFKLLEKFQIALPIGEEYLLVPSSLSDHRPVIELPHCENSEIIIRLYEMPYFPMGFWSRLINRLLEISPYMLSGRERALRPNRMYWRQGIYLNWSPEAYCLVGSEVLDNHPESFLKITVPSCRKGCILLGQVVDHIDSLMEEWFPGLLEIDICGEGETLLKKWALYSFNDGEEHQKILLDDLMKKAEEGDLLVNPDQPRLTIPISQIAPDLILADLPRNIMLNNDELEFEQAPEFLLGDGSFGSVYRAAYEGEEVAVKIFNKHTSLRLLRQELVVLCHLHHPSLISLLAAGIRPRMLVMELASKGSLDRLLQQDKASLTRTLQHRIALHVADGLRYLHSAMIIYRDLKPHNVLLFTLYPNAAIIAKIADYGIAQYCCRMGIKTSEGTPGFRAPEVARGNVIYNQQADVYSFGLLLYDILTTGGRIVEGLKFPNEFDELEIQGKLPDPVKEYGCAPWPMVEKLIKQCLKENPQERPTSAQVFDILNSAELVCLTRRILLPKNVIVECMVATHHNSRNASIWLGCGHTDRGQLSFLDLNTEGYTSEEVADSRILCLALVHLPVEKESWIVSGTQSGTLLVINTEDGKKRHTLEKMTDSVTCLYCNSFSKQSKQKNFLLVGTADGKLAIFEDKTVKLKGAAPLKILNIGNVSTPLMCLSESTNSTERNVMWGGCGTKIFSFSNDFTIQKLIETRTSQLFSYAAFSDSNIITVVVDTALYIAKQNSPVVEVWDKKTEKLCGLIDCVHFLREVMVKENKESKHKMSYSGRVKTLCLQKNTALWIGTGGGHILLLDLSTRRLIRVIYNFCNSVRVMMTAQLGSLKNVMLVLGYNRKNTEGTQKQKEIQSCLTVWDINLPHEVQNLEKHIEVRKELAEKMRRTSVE

Compound | IC50 [µM]
C[C@@H]1COc2ccc3[nH]nc(c3c2)-c2cccc(c2)OCCN[C@H]1C [Example 169, (11S,12S)-11,12-dimethyl-7,14-dioxa-10,19,20-triazatetracyclo[13.5.2.1^2,6.0^18,21]tricosa-1(20),2(23),3,5,15(22),16,18(21)-heptaene] | < 0.1
COC1CNCCOc2cccc(c2)-c2n[nH]c3ccc(cc23)OC1 (stereo not drawn) [Example 171, 12-methoxy-7,14-dioxa-10,19,20-triazatetracyclo[13.5.2.1^2,6.0^18,21]tricosa-1(20),2(23),3,5,15,17,21-heptaene] | < 0.1
C[C@@H]1CCNC(=O)COc2cc(cc(N3CCOCC3)c2)-c2n[nH]c3ccc(cc23)O1 [Example 172, (13R)-13-methyl-4-(morpholin-4-yl)-7,14-dioxa-10,19,20-triazatetracyclo[13.5.2.1^2,6.0^18,21]tricosa-1(20),2(23),3,5,15,17,21-heptaen-9-one] | < 0.01
C[C@@H]1CCNCCOc2cc(cc(N3CCOCC3)c2)-c2n[nH]c3ccc(cc23)O1 [Example 173, (13R)-13-methyl-4-(morpholin-4-yl)-7,14-dioxa-10,19,20-triazatetracyclo[13.5.2.1^2,6.0^18,21]tricosa-1(20),2(23),3,5,15,17,21-heptaene] | < 0.01
C[C@H]1CCNC(=O)COc2cc(cc(N3CCOCC3)c2)-c2n[nH]c3ccc(cc23)O1 [Example 174, (13S)-13-methyl-4-(morpholin-4-yl)-7,14-dioxa-10,19,20-triazatetracyclo[13.5.2.1^2,6.0^18,21]tricosa-1(20),2(23),3,5,15,17,21-heptaen-9-one] | < 0.01
C[C@H]1CCNCCOc2cc(cc(N3CCOCC3)c2)-c2n[nH]c3ccc(cc23)O1 [Example 175, (13S)-13-methyl-4-(morpholin-4-yl)-7,14-dioxa-10,19,20-triazatetracyclo[13.5.2.1^2,6.0^18,21]tricosa-1(20),2(23),3,5,15,17,21-heptaene] | < 0.01
C[C@@H]1CCNC(=O)CCn2cc(cn2)-c2n[nH]c3ccc(cc23)O1 [Example 179, (12R)-12-methyl-13-oxa-4,5,9,18,19-pentaazatetracyclo [12.5.2.1^2,5.0^17,20] docosa-1(19),2(22),3,14(21),15,17(20)-hexaen-8-one] | < 0.01
C[C@@H]1CCNCCCn2cc(cn2)-c2n[nH]c3ccc(cc23)O1 [Example 180, (12R)-12-methyl-13-oxa-4,5,9,18,19-pentaazatetracyclo [12.5.2.1^2,5.0^17,20]docosa-1(19),2(22),3,14(21),15,17(20)-hexaene] | < 0.1
c1cc2[nH]nc3c2cc1OCCCNCCCn1ncc-3n1 [Example 182, 13-oxa-4,5,9,18,19,22-hexaazatetracyclo[12.5.2.1^2,5.0^17,20] docosa-1(19),2(22),3,14(21),15,17(20)-hexaene] | < 0.01
C[C@@H]1NCCOc2cccc(c2)-c2n[nH]c3ccc(cc23)OC[C@H]1F [Example 184, (11S,12S)-12-fluoro-11-methyl-7,14-dioxa-10,19,20-triazatetracyclo[13.5.2.1^2,6.0^18,21]tricosa-1(20),2,4,6(23),15,17,21-heptaene] | < 0.1
FC(F)(F)c1cc2cc(c1)-c1n[nH]c3ccc(cc13)OCCCNCCO2 [Example 186, 4-(trifluoromethyl)-7,14-dioxa-10,19,20-triazatetracyclo [13.5.2.1^2,6.0^18,21]tricosa-1(20),2,4,6(23),15,17,21-heptaene] | < 0.01
Cc1cc2[nH]nc3c2cc1OCCCNC(=O)COc1cncc-3c1 [Example 187, 16-methyl-7,14-dioxa-4,10,19,20-tetraazatetracyclo[13.5.2.1^2,6.0^18,21]tricosa-1(20),2(23),3,5,15(22),16,18(21)-heptaen-9-one] | < 0.1
Cc1cc2[nH]nc3c2cc1OCCCNCCOc1cncc-3c1 [Example 188, 16-methyl-7,14-dioxa-4,10,19,20-tetraazatetracyclo[13.5.2.1^2,6.0^18,21]tricosa-1(20),2(23),3,5,15(22),16,18(21)-heptaene] | < 0.01

The remaining lines, values ahead:

IC50 [µM] | Compound
< 0.1 | C[C@@H]1COc2ccc3[nH]nc(c3c2)-c2cccc(c2)OCC(=O)N[C@H]1C [Example 168, (11S,12S)-11,12-dimethyl-7,14-dioxa-10,19,20-triazatetracyclo[13.5.2.1^2,6.0^18,21]tricosa-1(20),2(23),3,5,15(22),16,18(21)-heptaen-9-one]
< 0.1 | COC1CNC(=O)COc2cccc(c2)-c2n[nH]c3ccc(cc23)OC1 (stereo not drawn) [Example 170, 12-methoxy-7,14-dioxa-10,19,20-triazatetracyclo[13.5.2.1^2,6.0^18,21]tricosa-1(20),2(23),3,5,15,17,21-heptaen-9-one]
< 0.01 | CC1Oc2cc(cc(N3CCOCC3)c2)-c2n[nH]c3ccc(cc23)OCCCNC1=O (stereo not drawn) [Example 176, 8-methyl-4-(morpholin-4-yl)-7,14-dioxa-10,19,20-triazatetracyclo[13.5.2.1^2,6.0^18,21]tricosa-1(20),2,4,6(23),15,17,21-heptaen-9-one]
< 0.01 | O=C1CCn2ncc(n2)-c2n[nH]c3ccc(cc23)OCCCN1 [Example 181, 13-oxa-4,5,9,18,19,22-hexaazatetracyclo[12.5.2.1^2,5.0^17,20] docosa-1(19),2(22),3,14(21),15,17(20)-hexaen-8-one]
< 0.1 | C[C@@H]1NC(=O)COc2cccc(c2)-c2n[nH]c3ccc(cc23)OC[C@H]1F [Example 183, (11S,12S)-12-fluoro-11-methyl-7,14-dioxa-10,19,20-triazatetracyclo[13.5.2.1^2,6.0^18,21]tricosa-1(20),2,4,6(23),15,17,21-heptaen-9-one]
< 0.01 | O=C1COc2cc(cc(C(F)(F)F)c2)-c2n[nH]c3ccc(cc23)OCCCN1 [Example 185, 4-(trifluoromethyl)-7,14-dioxa-10,19,20-triazatetracyclo [13.5.2.1^2,6.0^18,21]tricosa-1(20),2,4,6(23),15,17,21-heptaen-9-one]
< 0.1 | CN1CCCNc2ccc3[nH]nc(c3c2)-c2cncc(c2)OCC1=O [Example 190, 10-methyl-7-oxa-4,10,14,19,20-pentaazatetracyclo[13.5.2.1^2,6.0^18,21]tricosa-1(20),2,4,6(23),15,17,21-heptaen-9-one]
< 0.1 | CN1CCCOc2ccc3[nH]nc(c3c2)-c2cc(C#N)cc(c2)OCC1=O [Example 191, 10-methyl-9-oxo-7,14-dioxa-10,19,20-triazatetracyclo [13.5.2.1^2,6.0^18,21]tricosa-1(20),2,4,6(23),15,17,21-heptaene-4-carbonitrile]
< 1 | O=C1COc2cccc(c2)-c2n[nH]c3ccc(cc23)OCCN1 [Example 192, 7,13-dioxa-10,18,19-triazatetracyclo[12.5.2.1^2,6.0^17,20]docosa-1(19),2(22),3,5,14(21),15,17(20)-heptaen-9-one]
< 0.01 | O=C1COc2cncc(n2)-c2n[nH]c3ccc(cc23)OCCCN1 [Example 193, 7,14-dioxa-4,10,19,20,23-pentaazatetracyclo[13.5.2.1^2,6.0^18,21]tricosa-1(20),2(23),3,5,15(22),16,18(21)-heptaen-9-one]
< 1 | CN1CCCOc2ccc3[nH]nc(c3c2)-c2cc(ccn2)OCC1=O [Example 194, 10-methyl-7,14-dioxa-3,10,19,20-tetraazatetracyclo[13.5.2.1^2,6.0^18,21]tricosa-1(20),2(23),3,5,15(22),16,18(21)-heptaen-9-one]
